HELM strings list units from the 5' end as sugar, base in round brackets, then linkage (d deoxyribose, r ribose, m 2'-O-methyl, p phosphodiester). Strings are as the collection lists them; they lack the last nucleoside at the 3' end of the tested compound. [moe] = 2'-O-(2-methoxyethyl) (MOE); [sp] = phosphorothioate linkage; [m5C] = 5-methylcytosine
Biological target: GFAP
Assay: mouse, dose not given
Conditions: ASO

Row | Substance | 3 h FOB score
1 | RNA1{[moe](G)[sp].[moe](G)p.[moe](G)p.[moe](T)p.[moe](G)[sp].d(A)[sp].d([m5C])[sp].d([m5C])[sp].d([m5C])[sp].d(A)[sp].d(A)[sp].d(G)[sp].d(T)[sp].d([m5C])[sp].d([m5C])[sp].[moe](T)p.[moe](T)p.[moe](G)[sp].[moe](G)}$$$$ (last 3' nucleoside missing) | 5 score 0-7
2 | RNA1{[moe](G)[sp].[moe](G)p.[moe](G)p.[moe](T)p.[moe](G)[sp].d(A)[sp].d(G)[sp].d(T)[sp].d(T)[sp].d(T)[sp].d([m5C])[sp].d(T)[sp].d(T)[sp].d(G)[sp].d(T)[sp].[moe](T)p.[moe](A)p.[moe](G)[sp].[moe](T)}$$$$ (last 3' nucleoside missing) | 6 score 0-7
3 | RNA1{[moe]([m5C])[sp].[moe](T)p.[moe]([m5C])p.[moe]([m5C])p.[moe](T)[sp].d(G)[sp].d(T)[sp].d(T)[sp].d(T)[sp].d([m5C])[sp].d(A)[sp].d(G)[sp].d([m5C])[sp].d(A)[sp].d(T)[sp].[moe]([m5C])p.[moe](T)p.[moe](T)[sp].[moe]([m5C])}$$$$ (last 3' nucleoside missing) | 2 score 0-7
4 | RNA1{[moe](A)[sp].[moe](G)p.[moe](T)p.[moe]([m5C])p.[moe](A)p.d(G)[sp].d([m5C])[sp].d([m5C])[sp].d(T)[sp].d(G)[sp].d(G)[sp].d(T)[sp].d(T)[sp].d(A)[sp].d(G)[sp].[moe]([m5C])p.[moe]([m5C])p.[moe](T)[sp].[moe](T)}$$$$ (last 3' nucleoside missing) | 4 score 0-7
5 | RNA1{[moe](T)[sp].[moe]([m5C])p.[moe](T)p.[moe](G)p.[moe](T)[sp].d(G)[sp].d([m5C])[sp].d(T)[sp].d(T)[sp].d(T)[sp].d(A)[sp].d(G)[sp].d(T)[sp].d(G)[sp].d(A)[sp].[moe]([m5C])p.[moe]([m5C])p.[moe](T)[sp].[moe](G)}$$$$ (last 3' nucleoside missing) | 4 score 0-7
6 | RNA1{[moe]([m5C])[sp].[moe](T)p.[moe](T)p.[moe](T)p.[moe](T)p.d(G)[sp].d(A)[sp].d(G)[sp].d(A)[sp].d(T)[sp].d(A)[sp].d(T)[sp].d([m5C])[sp].d(T)[sp].d(T)[sp].[moe](G)p.[moe](T)p.[moe](G)[sp].[moe](A)}$$$$ (last 3' nucleoside missing) | 0 score 0-7
7 | RNA1{[moe]([m5C])[sp].[moe](A)p.[moe](G)p.[moe](T)p.[moe](A)p.[moe](T)p.d(T)[sp].d(A)[sp].d([m5C])[sp].d([m5C])[sp].d(T)[sp].d([m5C])[sp].d(T)[sp].d(A)[sp].d([m5C])[sp].d(T)[sp].[moe](A)p.[moe](G)[sp].[moe](T)}$$$$ (last 3' nucleoside missing) | 0 score 0-7
8 | RNA1{[moe](G)[sp].[moe](T)p.[moe]([m5C])p.[moe](A)p.[moe]([m5C])p.[moe](A)p.d(T)[sp].d(T)[sp].d([m5C])[sp].d(A)[sp].d([m5C])[sp].d(T)[sp].d(A)[sp].d(A)[sp].d(T)[sp].d(A)[sp].[moe](T)p.[moe](T)[sp].[moe](T)}$$$$ (last 3' nucleoside missing) | 0 score 0-7
9 | RNA1{[moe](A)[sp].[moe](G)p.[moe](T)p.[moe]([m5C])p.[moe](A)p.[moe](G)p.d([m5C])[sp].d([m5C])[sp].d(T)[sp].d(G)[sp].d(G)[sp].d(T)[sp].d(T)[sp].d(A)[sp].d(G)[sp].d([m5C])[sp].[moe]([m5C])p.[moe](T)[sp].[moe](T)}$$$$ (last 3' nucleoside missing) | 3 score 0-7
10 | RNA1{[moe](T)[sp].[moe](T)p.[moe](T)p.[moe](T)p.d(G)[sp].d(A)[sp].d(G)[sp].d(A)[sp].d(T)[sp].d(A)[sp].d(T)[sp].d([m5C])[sp].d(T)[sp].d(T)[sp].[moe](G)p.[moe](T)p.[moe](G)p.[moe](A)[sp].[moe]([m5C])}$$$$ (last 3' nucleoside missing) | 3 score 0-7
11 | RNA1{[moe](T)[sp].[moe](G)p.[moe](G)p.[moe]([m5C])p.[moe](A)[sp].d(G)[sp].d(T)[sp].d(A)[sp].d(T)[sp].d(T)[sp].d(A)[sp].d([m5C])[sp].d([m5C])[sp].[moe](T)p.[moe]([m5C])p.[moe](T)[sp].[moe](A)}$$$$ (last 3' nucleoside missing) | 0 score 0-7
12 | RNA1{[moe](T)[sp].[moe](G)p.[moe](A)p.[moe](G)p.[moe](T)[sp].d(T)[sp].d(T)[sp].d([m5C])[sp].d(T)[sp].d(T)[sp].d(G)[sp].d(T)[sp].d(T)[sp].d(A)[sp].d(G)[sp].[moe](T)p.[moe](T)p.[moe](G)[sp].[moe](G)}$$$$ (last 3' nucleoside missing) | 6 score 0-7
13 | RNA1{[moe]([m5C])[sp].[moe]([m5C])p.[moe]([m5C])p.[moe](T)p.[moe]([m5C])[sp].d(T)[sp].d(T)[sp].d([m5C])[sp].d([m5C])[sp].d(T)[sp].d([m5C])[sp].d([m5C])[sp].d(A)[sp].d(G)[sp].d([m5C])[sp].[moe]([m5C])p.[moe](G)p.[moe]([m5C])[sp].[moe](G)}$$$$ (last 3' nucleoside missing) | 5 score 0-7
14 | RNA1{[moe](A)[sp].[moe](A)p.[moe](A)p.[moe](G)p.[moe](G)p.[moe]([m5C])p.d(A)[sp].d([m5C])[sp].d(A)[sp].d(G)[sp].d(T)[sp].d(T)[sp].d([m5C])[sp].d([m5C])[sp].d([m5C])[sp].d(A)[sp].[moe](G)p.[moe](A)[sp].[moe](T)}$$$$ (last 3' nucleoside missing) | 2 score 0-7
15 | RNA1{[moe](G)[sp].[moe]([m5C])p.[moe](A)p.[moe](G)p.d(T)[sp].d(A)[sp].d(T)[sp].d(T)[sp].d(A)[sp].d([m5C])[sp].d([m5C])[sp].d(T)[sp].d([m5C])[sp].d(T)[sp].[moe](A)p.[moe]([m5C])p.[moe](T)p.[moe](A)[sp].[moe](G)}$$$$ (last 3' nucleoside missing) | 1 score 0-7
16 | RNA1{[moe](T)[sp].[moe](T)p.[moe](T)p.[moe]([m5C])p.[moe](T)[sp].d([m5C])[sp].d(T)[sp].d([m5C])[sp].d([m5C])[sp].d(T)[sp].d(G)[sp].d(T)[sp].d(T)[sp].d(T)[sp].d([m5C])[sp].[moe](A)p.[moe](G)p.[moe]([m5C])[sp].[moe](A)}$$$$ (last 3' nucleoside missing) | 3 score 0-7
17 | RNA1{[moe](T)[sp].[moe](T)p.[moe](T)p.[moe](A)p.[moe](T)[sp].d(T)[sp].d(T)[sp].d(T)[sp].d(T)[sp].d([m5C])[sp].d([m5C])[sp].d(T)[sp].d([m5C])[sp].[moe](A)p.[moe](G)p.[moe]([m5C])[sp].[moe](G)}$$$$ (last 3' nucleoside missing) | 1 score 0-7
18 | RNA1{[moe](G)[sp].[moe](T)p.[moe](G)p.[moe](T)p.d(A)[sp].d(T)[sp].d(T)[sp].d(A)[sp].d(G)[sp].d(G)[sp].d(A)[sp].d(T)[sp].d([m5C])[sp].d([m5C])[sp].[moe]([m5C])p.[moe](A)p.[moe](T)p.[moe]([m5C])[sp].[moe](T)}$$$$ (last 3' nucleoside missing) | 3 score 0-7
19 | RNA1{[moe](G)[sp].[moe](T)p.[moe](T)p.[moe](T)p.[moe]([m5C])[sp].d(T)[sp].d(T)[sp].d(G)[sp].d(T)[sp].d(T)[sp].d(A)[sp].d(G)[sp].d(T)[sp].d(T)[sp].d(G)[sp].[moe](G)p.[moe](A)p.[moe](G)[sp].[moe](T)}$$$$ (last 3' nucleoside missing) | 7 score 0-7

— the OligoGym collection
